Test results as given in patent US20090196862A1, “High dosage Vitamin D” (priority 2008, published 2009).

Experiments:
[1] = literature report; cited from earlier work
[2] = Clinical observation of lipids, inflammatory levels and blood pressure on oral D3; type: in vivo, human; details: oral administration
Text: The present inventor observed lipid effects (reduced triglycerides, a raise in the levels of HDL [“good cholesterol”] and a reduction in LDL particles [“bad cholesterol”]) from oral supplementation of an oil-based preparation of D3.

atherosclerotic plaque = test: Coronary / atherosclerotic plaque by heart CT scan score in patients; type: in vivo, human; details: for effect on plaques (heart CT scan score): patients with coronary plaques
Description: In clinical practice with regard to plaque formation, the present inventor observed that blood serum levels of D3 of about 50 ng/mL provide sufficient effect. Below 50 ng/mL, there is an incremental effect, with a very small effect as low as 20 ng/mL, but a significant effect emerging at 40-45 ng/mL. By 50 ng/mL, there is a significant and often sufficient effect. About 50 ng/mL of 25-hydroxy-vitamin D [25(OH)D] in blood serum provides a reasonably strong effect against plaque buildup.

Row | Structure (SMILES) | conversion of D2 to D3 in humans [1] [%] | blood pressure [2] | inflammatory levels [2] | blood serum level of D3 at which a significant effect emerges (plaque formation) (atherosclerotic plaque; clinical practice) [ng/mL] | blood serum level of D3 providing sufficient effect on plaque formation (atherosclerotic plaque; clinical practice) | blood serum level of D3 with a very small effect (plaque formation) (atherosclerotic plaque; clinical practice) [ng/mL] | effect on plaques (heart CT scan score) (atherosclerotic plaque; listed as oral D3) | effect on plaques (heart CT scan score) (atherosclerotic plaque; listed as vitamin D)
1 | C=C1CC[C@H](O)C/C1=C/C=C1\CCC[C@]2(C)[C@@H]([C@H](C)/C=C/[C@H](C)C(C)C)CC[C@@H]12 [D2, ergocalciferol] | ≤ 70 | – | – | – | – | – | – | –
2 | C=C1CC[C@H](O)C/C1=C/C=C1\CCC[C@]2(C)[C@@H]([C@H](C)CCCC(C)C)CC[C@@H]12 [D3, cholecalciferol] | – | reductions | reductions | 40 to 45 | about 50 ng/mL | 20 | positive effect | decreased evidence of plaques
